Consider two compounds from BindingDB's records for doi:10.1016/j.bmcl.2007.07.011 (Bristol Myers Squibb, 2007).

The term IC50 denotes the concentration at which inhibition is half-maximal. Higher therefore signals a need for much substance.

The assay deals with T1, Polyunsaturated fatty acid lipoxygenase ALOX15 (Oryctolagus cuniculus, UniProt P12530).
T1 sequence (P12530 whole entry): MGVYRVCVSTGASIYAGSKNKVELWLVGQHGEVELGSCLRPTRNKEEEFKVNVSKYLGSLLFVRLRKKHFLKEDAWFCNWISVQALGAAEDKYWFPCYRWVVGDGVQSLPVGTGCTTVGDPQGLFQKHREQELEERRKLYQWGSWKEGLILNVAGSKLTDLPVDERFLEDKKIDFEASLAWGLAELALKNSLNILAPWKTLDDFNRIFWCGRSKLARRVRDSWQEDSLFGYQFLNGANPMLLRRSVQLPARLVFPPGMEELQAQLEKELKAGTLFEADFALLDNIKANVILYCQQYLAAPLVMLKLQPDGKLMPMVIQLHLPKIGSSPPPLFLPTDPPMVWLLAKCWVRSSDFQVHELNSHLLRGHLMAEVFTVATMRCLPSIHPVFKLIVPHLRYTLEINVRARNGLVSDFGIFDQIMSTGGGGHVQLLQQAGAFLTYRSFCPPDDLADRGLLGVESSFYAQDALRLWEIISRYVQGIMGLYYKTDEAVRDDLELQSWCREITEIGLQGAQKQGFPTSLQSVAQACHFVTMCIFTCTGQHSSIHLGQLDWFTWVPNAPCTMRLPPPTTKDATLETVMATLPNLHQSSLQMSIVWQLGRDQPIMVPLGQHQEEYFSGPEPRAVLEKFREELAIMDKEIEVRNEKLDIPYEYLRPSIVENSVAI
Kind of assay: Enzyme Inhibition Assay. On the procedure: The inhibitory activity of the compounds against purified 15-LO enzyme was determined using a standard colorimetric assay in which the lipid hydroperoxide product (13-hydroperoxyoctadecadienoic acid) oxidizes Fe2+. The Fe3+ forms a chromophore with xylenol orange that absorbs strongly at 560 nm.

Compound `CCCCCc1ccc(S(=O)(=O)NCCc2nc(-c3ccc(Cl)cc3)[nH]c2-c2ccc(OC)cc2)cc1` [N-{2-[2-(4-chlorophenyl)-5-(4-methoxyphenyl)-1H-imidazol-4-yl]ethyl}-4-pentylbenzene-1-sulfonamide] showed an IC50 of 210 nM.
With `COc1ccc(-c2nc(-c3cccs3)[nH]c2CCNS(=O)(=O)N(C)[C@@H]2CCN(c3ccc(Cl)c(Cl)c3)C2)cc1` [{[(3R)-1-(3,4-dichlorophenyl)pyrrolidin-3-yl](methyl)sulfamoyl}({2-[5-(4-methoxyphenyl)-2-(thiophen-2-yl)-1H-imidazol-4-yl]ethyl})amine] the figure was 11 nM.
